This is an account of results in ChEMBL document CHEMBL1151365, “The isolation and identification of several trichothecene mycotoxins from Fusarium heterosporum” (J Nat Prod, 1981).

Holding throughout (type): organism-based
The test system of data set [1] is Triticum aestivum. The data set can be described thus: (§1) Toxicity in Triticum aestivum assessed as inhibition of coleoptiles growth at 1 mM. Particulars: in vivo, 1000 µM.
For data set [2], the system named is Triticum aestivum. Description: Toxicity in Triticum aestivum assessed as inhibition of coleoptiles growth at 0.01 mM. As to conditions: in vivo, 10 µM.
The species entered for the next data set is Oryctolagus cuniculus. The data set can be described thus: Dermal toxicity in rabbit skin. As to conditions: in vivo.
Data set [3] deals with Triticum aestivum. Description: Toxicity in Triticum aestivum assessed as inhibition of coleoptiles growth at 0.1 mM. Particulars: in vivo, 100 µM.
A short description of data set [4]: as §1. Particulars: Triticum aestivum coleoptiles, read-out: Activity.

Some results are limits rather than exact numbers.

With `CC(=O)OC[C@]12C[C@H](OC(=O)CC(C)C)C(C)=C[C@H]1O[C@@H]1[C@H](O)[C@@H](O)[C@@]2(C)[C@]12CO2` [HT-2 TOXIN], the Activity entry in the data set on Triticum aestivum [1], in the data set on Triticum aestivum [2] and in the data set on Triticum aestivum [3] was “Toxic” in each case. Further, the ED50 in the data set listed under Oryctolagus cuniculus is 0.16 µg.

`CC(=O)OC[C@]12C[C@H](O)C(C)=C[C@H]1O[C@@H]1[C@H](O)[C@@H](O)[C@@]2(C)[C@]12CO2`: in data set [4], the inhibition at 1000 µM amounted to 59%. In the data set filed under Oryctolagus cuniculus, this compound had an ED50 greater than 1.28 µg.

Consider `CC(=O)OC[C@]12C[C@H](OC(=O)CC(C)(C)O)C(C)=C[C@H]1O[C@@H]1[C@H](O)[C@@H](O)[C@@]2(C)[C@]12CO2`, for which the Activity result with Triticum aestivum [1], in the data set with Triticum aestivum [2] and in the data set with Triticum aestivum [3] was “Toxic” in each case. This compound also came in with an ED50 in the data set listed under Oryctolagus cuniculus greater than 1.28 µg.

As for `CC1=C[C@H]2O[C@@H]3[C@H](O)[C@@H](O)[C@](C)([C@@]2(CO)C[C@@H]1O)[C@]31CO1`, in the data set filed under Oryctolagus cuniculus, the ED50 was greater than 1.28 µg.

With `CC(=O)OC[C@]12C[C@H](OC(=O)CC(C)C)C(C)=C[C@H]1O[C@@H]1[C@H](O)[C@@H](OC(C)=O)[C@@]2(C)[C@]12CO2` [T-2 TOXIN], the Activity result in the data set on Triticum aestivum [1], in the data set on Triticum aestivum [2] and with Triticum aestivum [3] was “Toxic” throughout. In the data set listed under Oryctolagus cuniculus, this compound came in with an ED50 of less than 0.16 µg.

Take `CC1=C[C@H]2O[C@@H]3[C@H](O)[C@@H](O)[C@](C)([C@@]2(CO)C[C@@H]1OC(=O)CC(C)(C)O)[C@]31CO1`: the Activity entry in the data set with Triticum aestivum [1], in the data set with Triticum aestivum [2] and in the data set with Triticum aestivum [3] was “Toxic” in each case. For the same compound, the ED50 in the data set listed under Oryctolagus cuniculus was greater than 1.28 µg.
